From PubChem BioAssay (NCI)
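Step 1: Grow cells in 96-well plates. Step 2: Expose to compound for 48 hours at 5 concentrations. Step 3: Interpolate endpoints linearly; if unreached, use highest concentration. GI50 = concentration required for 50% inhibition of growth. TGI denotes the concentration required for complete inhibition of growth.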

Tests used:
Experiment in all cases: inhibition of tumour cell growth, NCI panel, 48 h
[1] = system: OVCAR-5 ovarian
[2] = system: MOLT-4 leukemia
[3] = system: HCC-2998 colon
[4] = system: SK-MEL-2 melanoma
[5] = system: EKVX NSCLC
[6] = system: SK-MEL-28 melanoma
[7] = system: SK-OV-3 ovarian
[8] = system: OVCAR-4 ovarian
[9] = system: MDA-MB-435
[10] = system: ACHN renal
[11] = system: A498 renal
[12] = system: SF-268 CNS
[13] = system: TK-10 renal
[14] = system: NCI/ADR-RES ovarian
[15] = system: OVCAR-8 ovarian
[16] = system: HT29 colon
[17] = system: OVCAR-3 ovarian
[18] = system: HS 578T breast
[19] = system: SW-620 colon
[20] = system: 786-0 renal
[21] = system: MALME-3M melanoma
[22] = system: SN12C renal
[23] = system: KM12 colon
[24] = system: DU-145 prostate
[25] = system: SR leukemia
[26] = system: SNB-19 CNS
[27] = system: RXF 393 renal
[28] = system: BT-549 breast
[29] = system: MDA-MB-231 breast
[30] = system: IGROV1 ovarian
[31] = system: LOX IMVI melanoma
[32] = system: HOP-62 NSCLC
[33] = system: SK-MEL-5 melanoma
[34] = system: UACC-257 melanoma
[35] = system: UACC-62 melanoma
[36] = system: A549 NSCLC
[37] = system: SF-539 CNS
[38] = system: HCT-15 colon
[39] = system: RPMI-8226 leukemia
[40] = system: NCI-H226 lung
[41] = system: T-47D breast
[42] = system: CAKI-1 renal
[43] = system: PC-3 prostate
[44] = system: NCI-H23 lung
[45] = system: HCT-116 colon
[46] = system: K-562 leukemia
[47] = system: MCF7 breast
[48] = system: NCI-H460 lung
[49] = system: CCRF-CEM leukemia
[50] = system: HL-60(TB) leukemia
[51] = system: SF-295 CNS
[52] = system: UO-31 renal
[53] = system: COLO 205 colon
[54] = system: SNB-75 CNS
[55] = system: M14 melanoma
[56] = system: NCI-H522 lung
[57] = system: HOP-92 NSCLC
[58] = system: U251 CNS

SMILES: O=C(CN1CCN(c2ccccc2)CC1)N1CCN(c2nnc(-c3ccc(Cl)cc3)c(-c3ccc(Cl)cc3)n2)CC1
- GI50 [1]: > 100 µM
- TGI [1]: > 100 µM
- GI50 [2]: 1.63 µM
- TGI [2]: 9.97 µM
- GI50 [3]: 16.9 µM
- TGI [3]: > 100 µM
- GI50 [4]: 12.4 µM
- TGI [4]: 42.2 µM
- GI50 [5]: 21.6 µM
- TGI [5]: > 100 µM
- GI50 [6]: 56.2 µM
- TGI [6]: > 100 µM
- GI50 [7]: > 100 µM
- TGI [7]: > 100 µM
- GI50 [8]: 11 µM
- TGI [8]: > 100 µM
- GI50 [9]: 13.7 µM
- TGI [9]: > 100 µM
- GI50 [10]: 5.59 µM
- TGI [10]: > 100 µM
- GI50 [11]: 9.67 µM
- TGI [11]: 78 µM
- GI50 [12]: 14.9 µM
- TGI [12]: > 100 µM
- GI50 [13]: 5.97 µM
- TGI [13]: > 100 µM
- GI50 [14]: 8.05 µM
- TGI [14]: > 100 µM
- GI50 [15]: 16.3 µM
- TGI [15]: > 100 µM
- GI50 [16]: 4.04 µM
- TGI [16]: 24 µM
- GI50 [17]: 7.24 µM
- TGI [17]: 41.3 µM
- GI50 [18]: 16.5 µM
- TGI [18]: > 100 µM
- GI50 [19]: 16.1 µM
- TGI [19]: > 100 µM
- GI50 [20]: 11.6 µM
- TGI [20]: 53 µM
- GI50 [21]: 9.35 µM
- TGI [21]: > 100 µM
- GI50 [22]: 13 µM
- TGI [22]: > 100 µM
- GI50 [23]: 5.4 µM
- TGI [23]: > 100 µM
- GI50 [24]: 29.2 µM
- TGI [24]: > 100 µM
- GI50 [25]: 1.7 µM
- TGI [25]: 6.62 µM
- GI50 [26]: 37.2 µM
- TGI [26]: > 100 µM
- GI50 [27]: 9.41 µM
- TGI [27]: 63.3 µM
- GI50 [28]: 4.34 µM
- TGI [28]: 63.6 µM
- GI50 [29]: 21.9 µM
- TGI [29]: > 100 µM
- GI50 [30]: 6.5 µM
- TGI [30]: 40.8 µM
- GI50 [31]: 11.5 µM
- TGI [31]: 41.4 µM
- GI50 [32]: 20.5 µM
- TGI [32]: 75.9 µM
- GI50 [33]: 6.03 µM
- TGI [33]: 29.6 µM
- GI50 [34]: 14.7 µM
- TGI [34]: > 100 µM
- GI50 [35]: 15.9 µM
- TGI [35]: > 100 µM
- GI50 [36]: 9.86 µM
- TGI [36]: > 100 µM
- GI50 [37]: 5.91 µM
- TGI [37]: > 100 µM
- GI50 [38]: 6.35 µM
- TGI [38]: > 100 µM
- GI50 [39]: 3.88 µM
- TGI [39]: 20 µM
- GI50 [40]: > 100 µM
- TGI [40]: > 100 µM
- GI50 [41]: 3.51 µM
- TGI [41]: 28.9 µM
- GI50 [42]: 13.5 µM
- TGI [42]: > 100 µM
- GI50 [43]: 7.44 µM
- TGI [43]: > 100 µM
- GI50 [44]: 23.4 µM
- TGI [44]: > 100 µM
- GI50 [45]: 4.26 µM
- TGI [45]: 16.2 µM
- GI50 [46]: 3.32 µM
- TGI [46]: > 100 µM
- GI50 [47]: 3.08 µM
- TGI [47]: 19.6 µM
- GI50 [48]: 7.92 µM
- TGI [48]: > 100 µM
- GI50 [49]: 8.08 µM
- TGI [49]: > 100 µM
- GI50 [50]: 3.16 µM
- TGI [50]: 19.4 µM
- GI50 [51]: 36 µM
- TGI [51]: > 100 µM
- GI50 [52]: 2.04 µM
- TGI [52]: > 100 µM
- GI50 [53]: 3.61 µM
- TGI [53]: 27.7 µM
- GI50 [54]: 14 µM
- TGI [54]: 71.1 µM
- GI50 [55]: 9.99 µM
- TGI [55]: > 100 µM
- GI50 [56]: 10.7 µM
- TGI [56]: 66.6 µM
- GI50 [57]: 12.1 µM
- TGI [57]: 27.9 µM
- GI50 [58]: 8.16 µM
- TGI [58]: 31 µM
